Columns and labels:
[1] = test system: LPS-IFN—induced nitrite production; test: MIF-dependent nitrite production in peritoneal macrophages (Greiss assay); format: cell-based, mouse; conditions: for inhibition at 100 µM: Mus musculus, Peritoneal macrophage, compound 100 μM, LPS 10 ng/ml + interferon-γ 10 units/ml, 24 h, read-out: % Inhibition of nitrite (± SD)
Protocol: MIF is able to induce or facilitate the expression and release of a wide variety of pro-inflammatory and/or destructive molecules, including the release of macrophage nitric oxide (NO) ^(20). A compound with the ability to inhibit the cytokine or biological function of MIF might be expected to inhibit the activation of NO production by macrophages.
C57BL6/J male mice were injected intraperitoneally with 2 ml of thioglycolate. Three days later peritoneal macrophages were collected by lavaging the peritoneum with 3 ml of cold Hank's buffered saline solution. Cells from several mice were pooled, washed and re-suspended in DMEM supplemented with 5% FCS. Cells were plated in 96 well plastic tissue culture plates at 1×10^5 cells/well. Cells were treated in triplicate wells with compound or vehicle for 1 hour in a 5% CO2 incubator at 37° C. Cells were then treated with LPS (10 ng/ml) and recombinant human interferon-γ (10 units/ml) and incubated for 24 hours. After 24 hours, 50 μl of supernatant from each well was carefully removed and transferred to ELISA plates. The production of NO was measured by analysing the concentration of nitrite in culture supernatants, as measured by the Greiss assay ^(21). The results were calculated as the percentage inhibition of nitrite concentration in compound-treated cell culture supernatants, compared to that of vehicle-treated cells.

[2] = test system: MIF-induced proliferation of mouse NIH 3T3 fibroblasts; test: MIF-induced proliferation in mouse fibroblasts (3H-thymidine incorporation); format: cell-based; conditions: Compound (10×^10−6M) + MIF 50 ng/ml; nil 1087, MIF + vehicle 1452
Protocol: The activity of compounds was studied in a bioassay utilising MIF-induced proliferation of mouse NIH 3T3 fibroblasts. […] NIH 3T3 cells were propagated in DMEM/10% foetal calf serum (FCS). Prior to experimentation, cells were seeded at 10^4 cells/well in 96-well plates in DMEM/10% FCS for 18 hours. The media was then replaced with DMEM/0.1% FCS and the cells incubated for a further 18 hr. At time point −1 hr, culture medium was replaced with DMEM/0.1% FCS and cells were treated with a compound of the invention at a final concentration of 10 μM or vehicle. At time point zero, cells were treated with MIF at a final concentration of 50 ng/ml. At time point 6 hr the cells were pulsed with 1 µCi/well of ^3H-thymidine. At time point 24 hours, cells were harvested using a semi-automated cell harvester. The radioactivity incorporated into DNA was determined by liquid scintillation counting, with results expressed as ^3H-thymidine incorporation (cpm). Statistical significance was analysed using the Mann-Whitney test.

[3] = test system: LPS-induced serum IL-1, IL-6, and TNF; test: Mouse endotoxic shock model (serum cytokines by ELISA); format: in vivo; conditions: for effect on serum IL-1: 5 mg/kg; for IL-1 (pg/ml), serum: 5 mg/kg i.p. 24 h and 1 h before LPS 5 mg/kg, saline 175 ± 43, LPS plus vehicle 428 ± 168; for IL-1 (pg/ml), serum / IL-6 (ng/ml), serum / TNF (pg/ml), serum: 1.5 h after LPS; for effect on serum IL-6 / effect on serum TNF: 15 mg/kg; for IL-6 (ng/ml), serum / TNF (pg/ml), serum: 15 mg/kg i.p. 24 h and 1 h before LPS 5 mg/kg; for IL-6 (ng/ml), serum: saline 4 ± 4, LPS plus vehicle 118 ± 30; for TNF (pg/ml), serum: saline 189 ± 69, LPS plus vehicle 2022 ± 1245
Excerpt: The activity of compounds was studied in the murine endotoxic shock model. In this model, features of shock, characterised by increased serum levels of cytokines such as IL-1, tumor necrosis factor (TNF), and interleukin 6 (IL-6), are induced by the injection of bacterial lipoloysaccharide (LPS). The in vivo production of IL-1, IL-6, and TNF in response to endotoxin has been previously shown to be dependent on MIF ^(23).
Groups of four mice were used in each experiment. Endotoxaemia was induced by intra-peritoneal injection of lipopolysaccharide (LPS) (5 mg/kg) in 300 μl saline. Mice injected with saline alone were used as a control group. Treatments were administered by intra-peritoneal injection at intervals 24 hours and 1 hour before intra-peritoneal LPS injection. Mice were treated with saline, compounds dissolved in DMSO/saline vehicle at a dose of 5-15 mg/kg body weight, or vehicle (containing matching concentrations of DMSO).
After 1.5 hours mice were humanely killed by CO2 inhalation then neck dislocation. Serum was obtained from blood obtained by cardiac puncture prior to death and measured for the concentration of cytokines including IL-1, TNF, and/or IL-6, by ELISA. Statistical significance was analysed using the Mann-Whitney test.

[4] = test system: IL-1 induced COX-2 expression; test: Combination of MIF-antagonist with glucocorticoid: IL-1 induced fibroblast COX-2 expression; format: cell-based, human; conditions: IL-1 + dexamethasone 1 nM alone; control 0.7400, IL-1 49.37
Protocol: S112 human dermal fibroblasts were propagated in RPMI/10% foetal calf serum (FCS). Prior to experimentation, cells were seeded at 2×10^5 cells/ml in RPMI/0.1% BSA for 18 hours. Cells were treated with compound at 1-100 μM and 30 minutes later with recombinant human IL-1 (0.1 ng/ml). After 6 hours, cells were collected and intracellular COX-2 protein determined by permeabilisation flow cytometry, as described by Sampey et al ^(18). Cells permeabilised with 0.2% saponin were sequentially labelled with a mouse anti-human COX-2 monoclonal antibody and with sheep-anti-mouse F(ab)2 fragment labelled with fluoroscein isothiocyanate. Cellular fluorescence was determined using a flow cytometer. At least 5000 events were counted for each reading, each of which was performed in duplicate, and the results expressed in mean fluorescence intensity (MFI) after subtraction of negative control-labelled cell fluorescence.
The above in vitro assay (Biological Example 2) for analysing the effect of MIF antagonists on IL-1 induced COX-2 expression was performed using 2-(2-hydroxyethoxy)-2-(4′-hydroxy-3′-methylphenyl)-1,3-dioxolane (Compound 1) (50 μM), dexamethasone (1 nM) or a combination of dexamethasone (1 nM) and Compound 1 (50 μM). COX-2 expression was expressed as the mean fluorescence intensity (MFI) as measured by flow cytometry, after deduction of the MFI for control-labelled samples, as described by Sampey et al. ^(18).

CCCCCCC1(c2ccc(C)cc2)SCCS1 [Compound 17, 2-Hexyl-2-(4-methylphenyl)-1,3-dithiolane]
inhibition at 100 µM [1]: 69 ± 2% | Mean cpm (3H-thymidine incorporation) [2]: 933.2 cpm | inhibition of LPS-induced serum IL-6 ([3]; 5 and 15 mg/kg, FIG. 10b): marked inhibition | inhibition of LPS-induced serum TNF ([3]; 5 and 15 mg/kg, FIG. 10c): marked inhibition | inhibition of LPS-induced serum IL-1 ([3]; 5 and 15 mg/kg, statistically significant P<0.05, FIG. 10a): marked inhibition

Brc1ccc(C2NCCS2)cc1 (centres unmarked) [Compound 4, 2-(4-Bromophenyl)-1,3-thiazolane]
inhibition at 100 µM [1]: 22 ± 1% | melting point: 107 °C

Cc1ccc(-c2cnn(CCC(C)C)c2)cc1 [Compound 13, 1-(3-Methylbutyl)-4-(4-methylphenyl)-1H-pyrazole]
inhibition of LPS-IFN—induced nitrite production ([1]; 0.5-100 μM, FIG. 8): dose-responsive inhibition | inhibition at 100 µM [1]: 91 ± 8% | Mean cpm (3H-thymidine incorporation) [2]: 1015 cpm | effect on serum IL-1 [3]: inhibitory effect | IL-1 (pg/ml), serum [3]: 305 ± 51 pg/mL | effect on serum IL-6 [3]: inhibitory effect | effect on serum TNF [3]: inhibitory effect | IL-6 (ng/ml), serum [3]: 92 ± 7 ng/mL | TNF (pg/ml), serum [3]: 1067 ± 191 pg/mL

c1csc(-c2ccc(C3OCCS3)cc2)c1 (centres unmarked) [Compound 33, 2-(4-Thien-2-ylphenyl)-1,3-oxathiolane]
inhibition at 100 µM [1]: 47 ± 4% | effect on serum IL-1 [3]: inhibitory effect | IL-1 (pg/ml), serum [3]: 360 ± 72 pg/mL | effect on serum IL-6 [3]: inhibitory effect | effect on serum TNF [3]: inhibitory effect | IL-6 (ng/ml), serum [3]: 95 ± 14 ng/mL | TNF (pg/ml), serum [3]: 1152 ± 317 pg/mL

C[C@@H]1C[C@H]2[C@@H]3CCC4=CC(=O)C=C[C@]4(C)[C@@]3(F)[C@@H](O)C[C@]2(C)[C@@]1(O)C(=O)CO [DEX, dexamethasone, reference compound]
Mean COX-2 expression (MFI) [4]: 15.13 MFI

COc1ccc(C2NCCS2)cc1 (centres unmarked) [Compound 5, 2-(4-Methoxyphenyl)-1,3-thiazolane]
inhibition at 100 µM [1]: 22 ± 2% | melting point: 94 to 95 °C

COc1ccc(C2NCCS2)cc1OC (centres unmarked) [Compound 8, 2-(3,4-Dimethoxyphenyl)-1,3-thiazolane]
Mean cpm (3H-thymidine incorporation) [2]: 1238 cpm | melting point: 54 to 56 °C

COc1ccc(-c2cnn(CCC(C)C)c2)cc1 [Compound 12, 4-(4-Methoxyphenyl)-1-(3-methylbutyl)-1H-pyrazole]
inhibition at 100 µM [1]: 78 ± 9% | effect on serum IL-1 [3]: inhibitory effect | IL-1 (pg/ml), serum [3]: 286 ± 102 pg/mL | effect on serum IL-6 [3]: inhibitory effect | effect on serum TNF [3]: inhibitory effect | IL-6 (ng/ml), serum [3]: 80 ± 16 ng/mL | TNF (pg/ml), serum [3]: 1636 ± 468 pg/mL

COc1cc(C2NCCS2)ccc1O (centres unmarked) [Compound 7, 2-(4-Hydroxy-3-methoxyphenyl)-1,3-thiazolane]
inhibition at 100 µM [1]: 15 ± 1% | Mean cpm (3H-thymidine incorporation) [2]: 1281 cpm | melting point: 158 to 161 °C
